ChEMBL document CHEMBL5303304, “EUbOPEN Chemogenomics Library - IncuCyte” (2023)

How the values were obtained:
Format in all cases: toxicity, cell-based
[1] = tested on: HEK-293T; assay: Incucyte cell viability with HEK293T; settings: human, 10 µM, compound concentration 10 uM
[2] = tested on: Fibroblast; assay: Incucyte cell viability with human fibroblast; settings: 10 µM, compound concentration 10 uM
[3] = tested on: U2OS; assay: Incucyte cell viability with U2OS; settings: human, 10 µM, compound concentration 10 uM
Further: unitless GR value; below 1 slowed growth and below 0 cell loss.

## COc1cc(N2CCC(N3CCN(C)CC3)CC2)ccc1Nc1ncc(Cl)c(Nc2ccccc2S(=O)(=O)C(C)C)n1 [TAE-684]
[1]; 6 h, replicate number 1
  Growth Rate: -0.99
[1]; 6 h, replicate number 2
  Growth Rate: -0.4
[1]; 12 h, replicate number 1
  Growth Rate: -0.93
[1]; 12 h, replicate number 2
  Growth Rate: -0.16
[1]; 18 h, replicate number 1
  Growth Rate: -0.8
[1]; 18 h, replicate number 2
  Growth Rate: 0.06
[1]; 24 h, replicate number 1
  Growth Rate: -0.72
[1]; 24 h, replicate number 2
  Growth Rate: 0.17
[2]; 6 h, replicate number 1
  Growth Rate: 0.37
[2]; 6 h, replicate number 2
  Growth Rate: -0.99
[2]; 12 h, replicate number 1
  Growth Rate: -0.98
[2]; 12 h, replicate number 2
  Growth Rate: -0.28
[2]; 18 h, replicate number 1
  Growth Rate: 0.29
[2]; 18 h, replicate number 2
  Growth Rate: -0.21
[2]; 24 h, replicate number 1
  Growth Rate: -0.12
[2]; 24 h, replicate number 2
  Growth Rate: -0.32
[3]; 0 h, replicate number 2
  Growth Rate: -0.18
[3]; 6 h, replicate number 1
  Growth Rate: -0.18
[3]; 6 h, replicate number 2
  Growth Rate: 0.84
[3]; 12 h, replicate number 1
  Growth Rate: -0.09
[3]; 12 h, replicate number 2
  Growth Rate: 0.29
[3]; 18 h, replicate number 1
  Growth Rate: -0.06
[3]; 18 h, replicate number 2
  Growth Rate: 0.27
[3]; 24 h, replicate number 1
  Growth Rate: -0.15
[3]; 24 h, replicate number 2
  Growth Rate: 0.07

## CCc1nc(-c2cccc(C)c2)c(-c2ccnc(NC(=O)c3ccccc3)c2)s1 [TAK-715]
[1]; 6 h, replicate number 1
  Growth Rate: 0.48
[1]; 6 h, replicate number 2
  Growth Rate: 0.96
[1]; 24 h, replicate number 1
  Growth Rate: 0.92
[1]; 24 h, replicate number 2
  Growth Rate: 0.81
[2]; 0 h, replicate number 1
  Growth Rate: -0.56
[2]; 6 h, replicate number 2
  Growth Rate: 0.83
[3]; 0 h, replicate number 1
  Growth Rate: -1
[3]; 0 h, replicate number 2
  Growth Rate: 0.2
[3]; 6 h, replicate number 1
  Growth Rate: 0.63
[3]; 12 h, replicate number 2
  Growth Rate: 0.79
[3]; 18 h, replicate number 1
  Growth Rate: -0.35
[3]; 18 h, replicate number 2
  Growth Rate: 0.87
[3]; 24 h, replicate number 2
  Growth Rate: 0.92

## CC/C(=C(\c1ccccc1)c1ccc(OCCN(C)C)cc1)c1ccccc1.O=C(O)CC(O)(CC(=O)O)C(=O)O [TAMOXIFEN CITRATE]
[1]; 0 h, replicate number 2
  Growth Rate: -0.98
[1]; 6 h, replicate number 1
  Growth Rate: 0.14
[1]; 6 h, replicate number 2
  Growth Rate: 0.13
[1]; 12 h, replicate number 1
  Growth Rate: 0.4
[1]; 12 h, replicate number 2
  Growth Rate: 0.48
[1]; 18 h, replicate number 1
  Growth Rate: 0.48
[1]; 18 h, replicate number 2
  Growth Rate: 0.45
[1]; 24 h, replicate number 1
  Growth Rate: 0.56
[1]; 24 h, replicate number 2
  Growth Rate: 0.52
[2]; 6 h, replicate number 1
  Growth Rate: 0.1
[2]; 6 h, replicate number 2
  Growth Rate: 0.32
[2]; 12 h, replicate number 1
  Growth Rate: -0.13
[2]; 12 h, replicate number 2
  Growth Rate: -0.01
[2]; 18 h, replicate number 1
  Growth Rate: -0.15
[2]; 18 h, replicate number 2
  Growth Rate: -0.19
[2]; 24 h, replicate number 1
  Growth Rate: -0.08
[2]; 24 h, replicate number 2
  Growth Rate: -0.21
[3]; 0 h, replicate number 1
  Growth Rate: -0.22
[3]; 0 h, replicate number 2
  Growth Rate: 0.89
[3]; 6 h, replicate number 1
  Growth Rate: 0.66
[3]; 6 h, replicate number 2
  Growth Rate: 1
[3]; 12 h, replicate number 1
  Growth Rate: 0.8
[3]; 12 h, replicate number 2
  Growth Rate: 0.93
[3]; 18 h, replicate number 1
  Growth Rate: 0.84
[3]; 18 h, replicate number 2
  Growth Rate: 0.88
[3]; 24 h, replicate number 1
  Growth Rate: 0.91
[3]; 24 h, replicate number 2
  Growth Rate: 0.95

## Cn1nccc1Nc1nccc(-c2cc3c(s2)C(C)(C)N(CCN2CCOCC2)C3=O)n1 [TEMUTERKIB]
[1]; 0 h, replicate number 1
  Growth Rate: 0.39
[1]; 6 h, replicate number 2
  Growth Rate: 0.33
[1]; 12 h, replicate number 2
  Growth Rate: 0.76
[1]; 24 h, replicate number 2
  Growth Rate: 1
[2]; 0 h, replicate number 1
  Growth Rate: -0.63
[2]; 0 h, replicate number 2
  Growth Rate: -0.1
[2]; 12 h, replicate number 1
  Growth Rate: -0.93
[2]; 18 h, replicate number 1
  Growth Rate: 0.27
[2]; 24 h, replicate number 1
  Growth Rate: 0.12
[3]; 0 h, replicate number 1
  Growth Rate: -0.62
[3]; 0 h, replicate number 2
  Growth Rate: -0.42
[3]; 6 h, replicate number 1
  Growth Rate: 0.47
[3]; 6 h, replicate number 2
  Growth Rate: 0.51
[3]; 12 h, replicate number 1
  Growth Rate: 0.66
[3]; 18 h, replicate number 2
  Growth Rate: 0.82
[3]; 24 h, replicate number 2
  Growth Rate: 0.9

## Cn1cc(C(=O)O)c2ccc(N3CCC(OCc4c(-c5c(Cl)cccc5Cl)noc4C4CC4)CC3)cc21 [TERN-101]
[1]; 6 h, replicate number 1
  Growth Rate: 0.97
[2]; 0 h, replicate number 2
  Growth Rate: 0.89
[2]; 6 h, replicate number 1
  Growth Rate: -0.66
[2]; 6 h, replicate number 2
  Growth Rate: 0.73
[2]; 12 h, replicate number 1
  Growth Rate: 0.61
[2]; 18 h, replicate number 1
  Growth Rate: 0.62
[2]; 18 h, replicate number 2
  Growth Rate: 0.97
[2]; 24 h, replicate number 1
  Growth Rate: 0.37
[2]; 24 h, replicate number 2
  Growth Rate: 0.87
[3]; 0 h, replicate number 1
  Growth Rate: -0.23
[3]; 6 h, replicate number 1
  Growth Rate: 0.86
[3]; 6 h, replicate number 2
  Growth Rate: -0.83
[3]; 12 h, replicate number 1
  Growth Rate: 0.74
[3]; 12 h, replicate number 2
  Growth Rate: 0.96
[3]; 18 h, replicate number 1
  Growth Rate: 0.87
[3]; 24 h, replicate number 1
  Growth Rate: 0.91

## CCO[C@@H](Cc1ccc(OCCc2ccc(OS(C)(=O)=O)cc2)cc1)C(=O)O [TESAGLITAZAR]
[1]; 0 h, replicate number 1
  Growth Rate: 0.24
[1]; 0 h, replicate number 2
  Growth Rate: -0.46
[1]; 6 h, replicate number 1
  Growth Rate: 1
[1]; 6 h, replicate number 2
  Growth Rate: 0.96
[1]; 12 h, replicate number 2
  Growth Rate: 0.68
[1]; 18 h, replicate number 2
  Growth Rate: 0.85
[1]; 24 h, replicate number 2
  Growth Rate: 0.7
[2]; 0 h, replicate number 1
  Growth Rate: 0.92
[2]; 0 h, replicate number 2
  Growth Rate: 0.24
[2]; 6 h, replicate number 1
  Growth Rate: 0.95
[2]; 6 h, replicate number 2
  Growth Rate: 0.72
[2]; 12 h, replicate number 2
  Growth Rate: 0.56
[2]; 18 h, replicate number 1
  Growth Rate: 0.64
[2]; 18 h, replicate number 2
  Growth Rate: 0.87
[2]; 24 h, replicate number 1
  Growth Rate: 0.99
[3]; 0 h, replicate number 2
  Growth Rate: 0.8
[3]; 6 h, replicate number 2
  Growth Rate: 0.99
[3]; 18 h, replicate number 1
  Growth Rate: 0.98
[3]; 24 h, replicate number 1
  Growth Rate: 0.87

## O=C(O)Cc1cc(I)c(Oc2ccc(O)c(I)c2)c(I)c1 [TIRATRICOL]
[1]; 0 h, replicate number 1
  Growth Rate: 0.25
[1]; 0 h, replicate number 2
  Growth Rate: -0.35
[1]; 12 h, replicate number 2
  Growth Rate: 0.66
[1]; 18 h, replicate number 1
  Growth Rate: 0.92
[1]; 18 h, replicate number 2
  Growth Rate: 0.7
[1]; 24 h, replicate number 1
  Growth Rate: 1
[1]; 24 h, replicate number 2
  Growth Rate: 0.69
[2]; 0 h, replicate number 1
  Growth Rate: 0.68
[2]; 6 h, replicate number 1
  Growth Rate: 0.72
[2]; 6 h, replicate number 2
  Growth Rate: 0.26
[2]; 12 h, replicate number 2
  Growth Rate: 0.55
[2]; 18 h, replicate number 2
  Growth Rate: 0.7
[2]; 24 h, replicate number 1
  Growth Rate: 0.92
[2]; 24 h, replicate number 2
  Growth Rate: 0.76
[3]; 6 h, replicate number 1
  Growth Rate: 0.77
[3]; 12 h, replicate number 1
  Growth Rate: -0.73
[3]; 18 h, replicate number 1
  Growth Rate: 0.97
[3]; 18 h, replicate number 2
  Growth Rate: 0.96
[3]; 24 h, replicate number 2
  Growth Rate: 0.9

## Cc1cc(Nc2cc(N)ncn2)c(=O)n2c1C(=O)NC21CCCCC1 [TOMIVOSERTIB]
[1]; 0 h, replicate number 2
  Growth Rate: 0.56
[1]; 6 h, replicate number 1
  Growth Rate: 0.32
[2]; 0 h, replicate number 2
  Growth Rate: -1
[2]; 6 h, replicate number 1
  Growth Rate: 0.58
[2]; 6 h, replicate number 2
  Growth Rate: -0.8
[2]; 12 h, replicate number 1
  Growth Rate: -1
[3]; 0 h, replicate number 1
  Growth Rate: 0.95
[3]; 0 h, replicate number 2
  Growth Rate: 0.6
[3]; 6 h, replicate number 2
  Growth Rate: 0.49
[3]; 12 h, replicate number 1
  Growth Rate: 0.96
[3]; 18 h, replicate number 1
  Growth Rate: 0.93
[3]; 18 h, replicate number 2
  Growth Rate: 0.92
[3]; 24 h, replicate number 1
  Growth Rate: 0.88
[3]; 24 h, replicate number 2
  Growth Rate: 0.85

## CC1CCN(c2ccnc(NCc3cn(C)cn3)n2)CC1 [TP-040]
[1]; 6 h, replicate number 2
  Growth Rate: 0.85
[2]; 0 h, replicate number 2
  Growth Rate: -0.66
[2]; 6 h, replicate number 1
  Growth Rate: 0.15
[2]; 6 h, replicate number 2
  Growth Rate: 0.66
[2]; 12 h, replicate number 1
  Growth Rate: 0.71
[2]; 12 h, replicate number 2
  Growth Rate: 0.76
[2]; 18 h, replicate number 1
  Growth Rate: 0.71
[2]; 24 h, replicate number 1
  Growth Rate: 0.65
[3]; 0 h, replicate number 1
  Growth Rate: -1
[3]; 0 h, replicate number 2
  Growth Rate: 0.69
[3]; 6 h, replicate number 2
  Growth Rate: 0.76
[3]; 12 h, replicate number 2
  Growth Rate: 0.8
[3]; 18 h, replicate number 2
  Growth Rate: 0.86
[3]; 24 h, replicate number 2
  Growth Rate: 0.84

## CN1CCN(c2ccnc(NCCc3ccccc3)n2)CC1 [TP-040n]
[1]; 6 h, replicate number 1
  Growth Rate: 0.2
[1]; 6 h, replicate number 2
  Growth Rate: 0.09
[1]; 12 h, replicate number 1
  Growth Rate: 0.39
[1]; 12 h, replicate number 2
  Growth Rate: 0.3
[1]; 18 h, replicate number 1
  Growth Rate: 0.42
[1]; 18 h, replicate number 2
  Growth Rate: 0.35
[1]; 24 h, replicate number 1
  Growth Rate: 0.41
[1]; 24 h, replicate number 2
  Growth Rate: 0.4
[2]; 0 h, replicate number 1
  Growth Rate: -1
[2]; 12 h, replicate number 1
  Growth Rate: 0.8
[2]; 12 h, replicate number 2
  Growth Rate: 0.9
[2]; 18 h, replicate number 1
  Growth Rate: 0.74
[2]; 18 h, replicate number 2
  Growth Rate: 0.63
[2]; 24 h, replicate number 1
  Growth Rate: 0.58
[2]; 24 h, replicate number 2
  Growth Rate: 0.53
[3]; 6 h, replicate number 2
  Growth Rate: -0.72
[3]; 12 h, replicate number 1
  Growth Rate: 1
[3]; 18 h, replicate number 1
  Growth Rate: 0.94
[3]; 18 h, replicate number 2
  Growth Rate: 0.96
[3]; 24 h, replicate number 2
  Growth Rate: 0.87
